Here are results for 3 molecules from patent US20260256782A1, “COMBINATION THERAPIES COMPRISING MYC MODULATION” (FLAGSHIP PIONEERING INNOVATIONS V, INC., priority 2022, published 2026).

The test system of assay [1] is subcutaneous H1975 tumors with sensitizing EGFR mutations (L858R, T790M). Description: H1975 subcutaneous tumor model, tumor growth. The arrangement: species or system mice. The note with it: mouse, in vivo. As for the experimental part: Tumor growth was measured throughout the experiment (FIG. 15).
The length and width of tumors were measured three times weekly. Tumor volumes were calculated as width^2×length/2. Body weights were measured daily.

Another assay concerns PC9 cells. Description: Cell viability (CellTiter Glo), osimertinib with control or MR-32054. The class given is cell-based. The settings on record: Homo sapiens, PC-9, 72 h; read-out: IC50, reduction of viability. The text has this: (§1) The CellTiter Glo (Promega) assay was used according to manufacturer's instructions to assess cell viability. […] Odyssey CLx Imaging System (LICOR) using near-infrared (NIR) fluorescence was used to capture and quantify the protein images.
A general note: In ATP-based viability assays light output follows the ATP content of the culture.

Assay [2] has as its system osimertinib-resistant cell lines derived from H1975 (OsimR_1.25 and OsimR_1.5). In words: Cell viability (CellTiter Glo) after osimertinib or MR-32380 in osimertinib-resistant lines. It is filed as cell-based. The note with it: OsimR_1.25 and OsimR_1.5, 72 hours, increasing doses. The method, then: Cell viability was assessed using the CellTiter Glo (Promega) assay used according to manufacturer's instructions.

Assay [3] concerns MYC protein in osimertinib-resistant cell lines derived from H1975 (OsimR_1.25 and OsimR_1.5). In words: MYC protein level by JESS system. The class given is cell-based. The settings on record: osimertinib resistant H1975 cells, 48 hours, 1 μM osimertinib or 1 μg/ml MR-32380 in SSOP. The text has this: (§2) MYC protein levels were assess using a JESS system (Protein Simple). A 12-230 kDa pre-filled plate (Protein Simple) was loaded with protein lysate, antibody mix (MYC: Cell signaling technologies, actin: Cell signaling technologies, Goat anti-rabbit of mouse secondary antibodies conjugated with HRP, or fluorescent marker), and luminol master mix. The loaded plate and capillary cartridge (Protein Simple) were then transferred to the JESS system (Protein Simple) for imaging and quantification following manufacturer's protocol.

In assay [4] the test system is MYC protein in H1975 parental cells. Description: MYC protein level by JESS system. The note with it: 48 hours, 1 μM osimertinib or 1 μg/ml MR-32380 in SSOP. The class given is cell-based.
Description: as §2

Another assay has as its system Myc protein in PC9 cells. Description: Myc protein by Western blot, osimertinib and/or MR-32054. The class given is cell-based. The note with it: PC9, 48 h, 1 μM osimertinib and/or 0.5 μg/ml MR-32054 in SSOP LNPs, normalized to untreated. (In general: Immunoblotting shows a protein as a band on a membrane.)
Another assay relates to H1975 cells. In words: cells. The note with it: Homo sapiens, NCI-H1975, 72 h, read-out: IC50, growth inhibition (cell viability).
Description: as §1

The next assay deals with Hep 3B cells. Description: Cell viability (Celltiter-Glo), lenvatinib in combination with bicistronic ZF9-MQ1_ZF3-KRAB DS; Bliss synergy (SynergyFinder 2.0). The class given is cell-based. The settings on record: Homo sapiens, Hep3B, 72 h. As for the experimental part:
(§3) […] Cell viability (Celltiter-Glo) levels were assessed 72 hours after treatment. Bliss synergy scores calculated using SyngeryFinder 2.0 were used to determine combinatorial effect.
(§4) Bliss synergy scores calculated using SynergyFinder 2.0 were used to determine combinatorial effect. The degree of combination synergy, or antagonism, is quantified by comparing the observed drug combination response against the expected response, calculated using a reference model that assumes no interaction between drugs. The Bliss independence model assumes a stochastic process in which two drugs elicit their effects independently, and the expected combination effect can be calculated based on the probability of independent events. […] Bliss synergy scores plus lenvatinib for Hep 3B and SK-HEP-1 were 5.37 and 12.77.

The subject of the next assay is SK-HEP-1 cells. The description is as above. It is filed as cell-based. The settings on record: Homo sapiens, SK-HEP1, 72 h. The method, then:
as §3, §4

Read-outs that look alike come from different tables or passages of the source.

Take `C=CC(=O)Nc1cc(Nc2nccc(-c3cn(C)c4ccccc34)n2)c(OC)cc1N(C)CCN(C)C` [osimertinib]: the “tumor growth (tumor volume)” value in [1] was “inhibit tumor growth”. For the same molecule, the IC50 in the assay on PC9 cells was determined as 420 nM. The “cell viability (sensitivity)” value in assay [2] is “resistant to osimertinib”. In addition, the MYC protein level entry in assay [3] is given as “not affected”; in [4] it was “decreased MYC protein level”. The “reduction of Myc protein levels” value in the assay on Myc protein in PC9 cells came out at 80%.

For `CC(=O)Nc1cccc(-n2c(=O)n(C3CC3)c(=O)c3c(Nc4ccc(I)cc4F)n(C)c(=O)c(C)c32)c1` [trametinib], in the assay with H1975 cells, the IC50 turned out to be 140 nM.

For `COc1cc2nccc(Oc3ccc(NC(=O)NC4CC4)c(Cl)c3)c2cc1C(N)=O` [lenvatinib], the IC50 with Hep 3B cells (ZF9-MQ1_ZF3-KRAB concentration 0 μg/mL, cell viability 72 hours after treatment, read-out: Lenvatinib IC50) was 533 nM; with Hep 3B cells (ZF9-MQ1_ZF3-KRAB concentration 0.06 μg/mL, cell viability 72 hours after treatment, read-out: Lenvatinib IC50) it was 309 nM; in the assay on Hep 3B cells (ZF9-MQ1_ZF3-KRAB concentration 0.6 μg/mL, cell viability 72 hours after treatment, read-out: Lenvatinib IC50) it was 23 nM; in the assay on Hep 3B cells (ZF9-MQ1_ZF3-KRAB concentration 1.0 μg/mL, cell viability 72 hours after treatment, read-out: Lenvatinib IC50), 48 nM; in the assay on Hep 3B cells (lenvatinib without DS, read-out: half maximal inhibitory concentration (IC50) of lenvatinib), 533 nM; in the assay with SK-HEP-1 cells (SK-HEP-1, 72 hours, lenvatinib without DS, read-out: IC50 of lenvatinib), 17700 nM. Moreover, the IC50 with SK-HEP-1 cells (SK-HEP-1, ZF9-MQ1_ZF3-KRAB concentration 0 μg/mL, cell viability 72 hours after treatment, read-out: Lenvatinib IC50) was 17700 nM; in the assay on SK-HEP-1 cells (SK-HEP-1, ZF9-MQ1_ZF3-KRAB concentration 0.1 μg/mL, cell viability 72 hours after treatment, read-out: Lenvatinib IC50) it was 13300 nM; in the assay on SK-HEP-1 cells (SK-HEP-1, ZF9-MQ1_ZF3-KRAB concentration 0.6 μg/mL, cell viability 72 hours after treatment, read-out: Lenvatinib IC50), 3860 nM; with SK-HEP-1 cells (SK-HEP-1, ZF9-MQ1_ZF3-KRAB concentration 1.0 μg/mL, cell viability 72 hours after treatment, read-out: Lenvatinib IC50) it was 1910 nM.
